# Test results: patent publication US12391962B2, “Targeting peptide to deliver a compound to oocytes” (THE PENN STATE RESEARCH FOUNDATION, priority 2017, dated 2025)
# Values joined by “and” are separate entries in the source; they are usually repeats but may differ in a detail not shown here. Identical values can stand only once. “Also recorded” adds a separate entry of the source.
# B1: DmYP1-EGFP: fusion protein of full length Drosophila melanogaster Yolk Protein 1 (439 amino acids) with EGFP (protein)
# chain: PNGRMDNSVNQALKPSQWLSGSQLEAIPALDDFTIERLENMNLERGAELLQQVYHLSQIHHNVEPNYVPSGIQVYVPKPNGDKTVAPLNEMIQRLKQKQNFGEDEVTIIVTGLPQTSETVKKATRKLVQAYMQRYNLQQQRQHGKNGNQDYQDQSNEQRKNQRTSSEEDYSEEVKNAKTQSGDIIVIDLGSKLNTYERYAMLDIEKTGAKIGKWIVQMVNELDMPFDTIHLIGQNVGAHVAGAAAQEFTRLTGHKLRRVTGLDPSKIVAKSKNTLTGLARGDAEFVDAIHTSVYGMGTPIRSGDVDFYPNGPAAGVPGASNVVEAAMRATRYFAESVRPGNERSFPAVPANSLQQYKQNDGFGKRAYMGIDTAHDLEGDYILQVNPKSPFGRNAPAQKQSSYHGVHQAWNTNQDSKDYQ
# modifications: left off: small tags and cut ends; large carriers
# notes: fusion protein of full length Drosophila melanogaster Yolk Protein 1 (439 amino acids) with EGFP
# Assays:
# kmo gene = experiment: Paternal allele knockout by adult female injection: white eye females x wild-type males; assay type: in vivo, Aedes aegypti; conditions: EER co-injected with RNP; for altered offspring with the endosomal release reagent: females injected at 48-52 h PBF; for mosaic offspring per injected females with the endosomal release reagent: 48-52 h PBF, 1/20 females
# From the text: After mating as described in the above, females (generation −1; G−1) were blood fed and injected with P2C-Cas9 RNPs and EERs. Resulting G0 offspring were screened for kmo gene editing phenotypes (white or mosaic eyes). Genomic DNA from identified individuals was extracted using DNeasy blood and tissue kits (Qiagen) and the region spanning both kmo 460 and 519* sites amplified by PCR using primers ZA2210 (5′TTC-AAG-ACC-AGG-CCT-CAA-TC3′) (SEQ ID NO: 35) and KmR1 (5′TCA-CTA-AAC-TCA-GCC-AGT-ATC-CTA-T3′) (SEQ ID NO: 36) and cloned into the pJET1.2 vector. A minimum of 6 clones per individual were randomly selected and sequenced.
# In order to estimate the frequency of paternal gene editing, homozygous Wh-Iso8-kmo^460 females outcrossed to homozygous wild type males were injected at 48-52 h PBF. […] The region spanning the target sites from the mosaic individual collected from saponin treatment was cloned and sequenced (FIG. 10A). […] The genomic DNA from the monensin and spontaneous white eye individuals were not of suitable quality for PCR and cloning.
# recombinant Cas9 = molecular target: T1, recombinant Cas9 (Streptococcus pyogenes serotype M1, UniProt Q99ZW2); experiment: In vitro DNA cleavage assay; assay type: biochemical; conditions: gel separation
# T1 construct: vector-derived additions of pET28a-Cas9-cys (the plasmid name implies an added Cys); made in house; host or cells: E. coli BL21 and Rosetta2 (DE3) pLysS
# T1 sequence (Q99ZW2 whole entry): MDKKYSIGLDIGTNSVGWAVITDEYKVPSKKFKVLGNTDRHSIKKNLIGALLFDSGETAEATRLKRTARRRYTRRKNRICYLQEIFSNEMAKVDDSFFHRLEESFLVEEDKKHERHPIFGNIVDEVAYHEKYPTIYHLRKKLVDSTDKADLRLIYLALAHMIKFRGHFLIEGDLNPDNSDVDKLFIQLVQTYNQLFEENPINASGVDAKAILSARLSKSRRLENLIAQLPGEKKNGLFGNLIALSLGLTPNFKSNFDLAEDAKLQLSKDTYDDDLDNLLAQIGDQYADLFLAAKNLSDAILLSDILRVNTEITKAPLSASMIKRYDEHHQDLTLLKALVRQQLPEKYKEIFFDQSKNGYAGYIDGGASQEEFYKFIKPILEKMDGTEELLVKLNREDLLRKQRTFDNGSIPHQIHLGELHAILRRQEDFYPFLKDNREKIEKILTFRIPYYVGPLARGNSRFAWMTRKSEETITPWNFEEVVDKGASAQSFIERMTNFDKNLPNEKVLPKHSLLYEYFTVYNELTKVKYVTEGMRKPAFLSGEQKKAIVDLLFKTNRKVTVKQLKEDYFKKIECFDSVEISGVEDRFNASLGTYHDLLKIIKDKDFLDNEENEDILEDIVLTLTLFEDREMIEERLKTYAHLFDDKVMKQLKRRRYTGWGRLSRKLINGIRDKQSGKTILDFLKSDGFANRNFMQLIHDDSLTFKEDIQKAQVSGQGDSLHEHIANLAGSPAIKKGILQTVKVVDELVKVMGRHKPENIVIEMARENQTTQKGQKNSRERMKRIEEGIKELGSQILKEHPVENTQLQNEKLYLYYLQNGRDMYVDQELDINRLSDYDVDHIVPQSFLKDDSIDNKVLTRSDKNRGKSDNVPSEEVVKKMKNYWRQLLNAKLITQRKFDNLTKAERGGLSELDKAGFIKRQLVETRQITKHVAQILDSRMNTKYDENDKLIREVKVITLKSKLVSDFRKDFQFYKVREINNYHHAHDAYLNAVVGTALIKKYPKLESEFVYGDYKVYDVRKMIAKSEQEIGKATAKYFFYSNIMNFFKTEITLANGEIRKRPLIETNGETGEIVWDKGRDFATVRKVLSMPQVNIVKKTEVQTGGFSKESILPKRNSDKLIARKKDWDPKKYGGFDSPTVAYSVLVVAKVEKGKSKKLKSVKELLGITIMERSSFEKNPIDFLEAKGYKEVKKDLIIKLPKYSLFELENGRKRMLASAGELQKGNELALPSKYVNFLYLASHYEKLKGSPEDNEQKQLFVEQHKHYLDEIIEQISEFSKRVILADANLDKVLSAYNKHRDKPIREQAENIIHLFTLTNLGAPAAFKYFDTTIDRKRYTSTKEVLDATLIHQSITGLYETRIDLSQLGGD
# Experimental: Reactions were performed for 1 h at 37° C. and diagnostic bands visualized by electrophoresis in a 1% agarose/TAE gel.
# Ae. aegypti females = experiment: LD50 of endosomal escape reagents injected into the hemolymph 24h PBF; conditions: injected into the hemolymph of females 24h PBF; 100 females injected
# Bemisia tabaci ovaries = experiment: Transduction of mCherry into ovaries with vitellogenin-derived targeting peptide; assay type: in vivo; conditions: injection into adult females
# From the text: (§1) Several targeting peptides, including […] (Bemisia tabaci, SEQ ID NO: 26), […] (Bombus impatiens, SEQ ID NO: 27), […] (Ixodes scapularis, SEQ ID NO: 28), or […] (Danio rerio, SEQ ID NO: 29), were further validated. The DNA encoding these peptides were synthesized, fused to the fluorescent reporter proteins GFP or mCherry (with a HIS tag to aid in purification), and cloned into pET28. The plasmids were then transformed into E. coli BL21 (NEB) and Rosetta2™ (DE3) pLysS competent cells, with the transformation being verified by […].
# (§2) To induce expression of the recombinant protein, a preculture was grown overnight at 30° C. in 50 mL of Luria Broth (LB) supplemented with […] chloramphenicol and […] kanamycin. After 12 hours, 10 mL of preculture was transferred to 900 mL of LB supplemented with the same antibiotics, incubated at 37° C. until OD=0.6. Then 0.05 mM isopropyl β-D-1-thiogalactopyranoside (IPTG) was added and the culture incubated overnight at 30° C.
# (§3) Cells were spun down at >10,000×g for 15 min, resuspended in 50 mL lysis buffer (20 mM Tris-HCl, pH 8.0, 300 mM NaCl, 20 mM imidazole), placed at −80° C. overnight and incubated with lysozyme (1 mg/ml) and 100 ppm of […] (PMSF) for 30 min at 4° C. The suspension was sonicated 5 times at 60% duty 5 seconds pulse 5 seconds rest (two aliquots each 20 mL), centrifuged at 13,000×g for 30 min, the supernatant removed and incubated with Ni-NTA beads (Qiagen) with rotation at 4° C. overnight. Beads were washed 3 times with 10 mL lysis buffer and eluted with 1 mL elution buffer (20 mM Tris-HCl, pH 8.0, 300 mM NaCl, 250 mM imidazole) 10 times. Eluted protein was dialyzed in a Slide-A-Lyzer dialysis cassette (Thermo Fisher) for two hours in dialysis buffer (50 mM Tris-HCl, pH 8.0, 300 mM KCl, 0.1 mM EDTA, 0.5 mM PMSF) and buffer changed every 2 hours, for 2 times, then left overnight at 4° C. with gentle agitation in fresh buffer, Protein purity was visualized by SDS-PAGE and concentration estimated using Bradford assay. […]
# Danio rerio ovaries = experiment: Transduction of EGFP into ovaries with vitellogenin-derived targeting peptide; assay type: in vivo; conditions: injection into adult females
# From the text: as §1, §2
# Cells were spun down at >10,000×g for 15 min, resuspended in 50 mL lysis buffer (20 mM Tris-HCl, pH 8.0, 300 mM NaCl, 20 mM imidazole), placed at −80° C. overnight and incubated with lysozyme (1 mg/ml) and 100 ppm of […] (PMSF) for 30 min at 4° C. […]
# [1] = system: Ixodes scapularis ovaries; experiment: Transduction of mCherry into ovaries with vitellogenin-derived targeting peptide; assay type: in vivo; conditions: injection into adult females
# From the text: as §1, §2, §3
# B. tabaci white gene = experiment: Knockout of the B. tabaci white gene by ReMOT Control (adult female injection); assay type: in vivo, Bemisia tabaci
# Experimental: The females were injected and placed on a piece of soybean leaflet in a petri dish with a moist paper towel wrapped around the stem and another paper towel on the bottom plate to prolong the life of the leaflet. Water and liquid fertilizer were added as needed. Females were removed from the leaflet 2 weeks post injection. The petri dishes were incubated at 28° C., 16L/8D cycle, in a humidified Heratherm IMH750-S reach-in chamber, and the progeny of injected females screened visually for altered eye color in nymphs or adults using an Olympus SZX7 stereomicroscope. Mutations in insects showing altered eye color were confirmed by PCR using PHIRE Tissue Direct PCR Master Mix (Thermo Fischer Scientific), the amplicon was cloned into pJET1.2, and clones were submitted for Sanger sequencing.
# For proof of principle gene editing experiments, we chose the white gene, which is an ABC transporter protein responsible for transport of ommochrome pigments into the eyes.
# mealybug ovaries = experiment: P2C-mediated delivery of EGFP to mealybug ovaries; assay type: in vivo; conditions: procedure of Example 1
# Experimental: To determine if P2C could be used in to deliver cargo in species other than mosquito, it was tested on mealybugs using the procedure of Example 1. […] Therefore, P2C is an effective targeting molecule in more than just mosquitoes.
# [2] = system: Anopheles gambiae oocytes; experiment: Ovary uptake of EGFP fusion proteins after injection into blood-fed females (fluorescence microscopy); assay type: in vivo
# Experimental: To show DmYP1 (or fragments thereof) act as suitable ligands to deliver protein cargo into mosquito oocytes, a DmYP1-EGFP, or fragments of DmYP1-EGFP, fusion protein was expressed and injected into the thorax of Anopheles gambiae females 12 and 24 h post-blood feeding (PBF).
# Injections were performed with an aspirator tube assembly (A5177, Sigma) fitted with a glass capillary needle. Adult females were immobilized at 4° C. following a bloodmeal and kept on ice during injection. Females were injected intrathoracically until no additional fluid would enter, at an approximate volume of 200 nl per female. To visually confirm EGFP in the ovaries following injection, ovaries were dissected, mounted in saline buffer mixed with SlowFade Gold® antifade reagent (Invitrogen), covered with a coverslip and imaged on an Olympus BX41 epifluorescent microscope. Negative controls were injected with recombinant EGFP lacking a targeting ligand.
# A deletion analysis of the DmYP1 protein was conducted to identify the smaller region that efficiently transduced cargo into mosquito ovaries. Three portions of approximately 120 amino acids (FIG. 1) were encoded on an expression plasmid linked to EGFP via a Glycine-Serine linker. Fusion proteins included the DmYP1 secretion signal at the N-terminus. The construct was inserted into the plasmid pAc5-STABLE1-Neo under control of the Drosophila Actin5C promoter. Plasmids were transfected into Drosophila S2 cells using Lipofectamine® LTX WITH Plus™ Reagent (ThermoFisher). Cell culture supernatant was collected 72 hours post-transfection, concentrated 100× using Amicon® and Centricon® Plus-70 centrifugal filter devices (Millipore) and injected into female An. gambiae 12 and 24 hours PBF. Ovaries were dissected 12, 24 and 48 h hours post-injection, dissected and visualized for EGFP fluorescence. EGFP fusion protein fused to the full length DmYP1 protein (439 amino acids) was used as a positive control, while recombinant EGFP without a targeting ligand was used as a negative control.
# Aedes aegypti ovaries = experiment: Transduction of mCherry into ovaries with vitellogenin-derived targeting peptide; assay type: in vivo; conditions: injection into adult females
# Bombus impatiens ovaries = experiment: as above; assay type: in vivo; conditions: injection into adult females
# From the text: as §1, §2, §3
# [3] = injection 12 h PBF, Total of 2 replicates
# [4] = injection 24 h PBF, Total of 2 replicates
molecule,measurement,setting,value
Cl.N [Ammonium Chloride],altered offspring with the endosomal release reagent,kmo gene,no altered offspring
CCN(CC)CCCC(C)Nc1ccnc2cc(Cl)ccc12 (stereo not drawn) [Chloroquine],altered offspring with the endosomal release reagent,kmo gene,no altered offspring
same,effect on Cas9 cleavage function in vitro,recombinant Cas9,did not affect Cas9 cleavage function in vitro
same,effect on Cas9 cleavage function in vitro,recombinant Cas9; listed as chloroquine,not inhibited
CC[C@@]1([C@@H]2O[C@@H]([C@H]3O[C@@](O)(CO)[C@H](C)C[C@@H]3C)C[C@@H]2C)CC[C@H]([C@]2(C)CC[C@]3(C[C@H](O)[C@@H](C)[C@@H]([C@@H](C)[C@@H](OC)[C@H](C)C(=O)O)O3)O2)O1 [Monensin],LD50,Ae. aegypti females,1.0 mM
same,mosaic offspring per injected females with the endosomal release reagent,kmo gene,5%
O=C(N/N=C/c1ccc(O)c(O)c1)c1cc2ccccc2cc1O [dynasore],altered offspring with the endosomal release reagent,kmo gene,no altered offspring
DIVKTTNY,transduction of mCherry protein into ovaries,Bemisia tabaci ovaries,transduced into developing vitellogenic eggs
IVTKSKDL,transduction of EGFP protein into ovaries,Danio rerio ovaries,transduced into developing vitellogenic eggs
NFTKTKNY,transduction of mCherry protein into ovaries,[1],transduced into developing vitellogenic eggs
NLQQQRQHGKNGNQDYQDQSNEQRKNQRTSSEEDYSEEVKN (Drosophila melanogaster) [P2C],gene editing outcome by targeting peptide (in words),"B. tabaci white gene; Cas9 RNP injections, with or without saponin",did not function robustly; also recorded: did not result in any visibly edited offspring; also recorded: did not generate knockouts
same,delivery of EGFP into eggs,mealybug ovaries,"able to specifically deliver EGFP into the developing vitellogenic eggs, but not the immature eggs"
same,localization of transduced EGFP,[2]; embryo development,observed in yolk granules (arrows) throughout embryo development
same,ovary uptake / delivery of EGFP in deletion analysis of DmYP1,[2]; fragments expressed as EGFP fusion proteins,contained the RBR; also recorded: fully sufficient to deliver EGFP to Anopheles oocytes
same,dose dependence of P2C-mediated transduction of EGFP,"[2]; injected 12 h, ovaries dissected 24 h PBF",dose-dependent
QVTKTQNF,transduction of mCherry protein into ovaries,Aedes aegypti ovaries,transduced into developing vitellogenic eggs
RKSKNFDK,transduction of mCherry protein into ovaries,Bombus impatiens ovaries,transduced into developing vitellogenic eggs
Saponin [reference compound],LD50,Ae. aegypti females,0.024 mM
same,effect of saponin as endosome escape reagent on editing,"B. tabaci white gene; higher concentrations (8, 16 μg/mL)",inhibitory; also recorded: detrimental to the process
same,mosaic offspring per injected females with the endosomal release reagent,kmo gene,5%
B1,% Follicles (Efficiency),[2]; injection 12 h PBF,100% and 98%
same,N Follicles with EGFP,[2]; injection 12 h PBF,243 and 381
same,N (showing EGFP in follicles),"[2]; injection 12 h PBF, 20 females injected per replicate",17 and 19
same,% Follicles (Efficiency),[2]; [3],99.7%^
same,N Follicles with EGFP,[2]; [3],624
same,N (showing EGFP in follicles),"[2]; injection 12 h PBF, Total of 2 replicates, 40 injected",36
same,% Follicles (Efficiency),[2]; injection 24 h PBF,98% and 99%
same,N Follicles with EGFP,[2]; injection 24 h PBF,245 and 197
same,N (showing EGFP in follicles),"[2]; injection 24 h PBF, 20 females injected per replicate",18 and 17
same,% Follicles (Efficiency),[2]; [4],98.2%^
same,N Follicles with EGFP,[2]; [4],442
same,N (showing EGFP in follicles),"[2]; injection 24 h PBF, Total of 2 replicates, 40 injected",35
same,primary oocytes with EGFP visualized,"[2]; regardless of the timing of the injection, ovaries dissected 24-72 h PBF",90-100%
